According to ChEMBL document CHEMBL5230103, “Hydroxamic acid hybrids as the potential anticancer agents: An Overview” (Eur J Med Chem, 2020):

Key:
U-251 = assay: Cytotoxicity against human U-251 cells assessed as inhibition of cell growth by MTT assay; format: functional, cell-based
[1] = Cytotoxicity against human U87 cells assessed as inhibition of cell growth by MTT assay; format: functional, cell-based, U-87MG ATCC; details: U-87 MG
T98G = assay: Cytotoxicity against human T98G cells assessed as inhibition of cell growth by MTT assay; format: functional, cell-based
[2] = molecular target: T1, Protein deacetylase HDAC6 (Homo sapiens, UniProt Q9UBN7); assay: Inhibition of HDAC6 (unknown origin)
T1 sequence (Q9UBN7 whole entry): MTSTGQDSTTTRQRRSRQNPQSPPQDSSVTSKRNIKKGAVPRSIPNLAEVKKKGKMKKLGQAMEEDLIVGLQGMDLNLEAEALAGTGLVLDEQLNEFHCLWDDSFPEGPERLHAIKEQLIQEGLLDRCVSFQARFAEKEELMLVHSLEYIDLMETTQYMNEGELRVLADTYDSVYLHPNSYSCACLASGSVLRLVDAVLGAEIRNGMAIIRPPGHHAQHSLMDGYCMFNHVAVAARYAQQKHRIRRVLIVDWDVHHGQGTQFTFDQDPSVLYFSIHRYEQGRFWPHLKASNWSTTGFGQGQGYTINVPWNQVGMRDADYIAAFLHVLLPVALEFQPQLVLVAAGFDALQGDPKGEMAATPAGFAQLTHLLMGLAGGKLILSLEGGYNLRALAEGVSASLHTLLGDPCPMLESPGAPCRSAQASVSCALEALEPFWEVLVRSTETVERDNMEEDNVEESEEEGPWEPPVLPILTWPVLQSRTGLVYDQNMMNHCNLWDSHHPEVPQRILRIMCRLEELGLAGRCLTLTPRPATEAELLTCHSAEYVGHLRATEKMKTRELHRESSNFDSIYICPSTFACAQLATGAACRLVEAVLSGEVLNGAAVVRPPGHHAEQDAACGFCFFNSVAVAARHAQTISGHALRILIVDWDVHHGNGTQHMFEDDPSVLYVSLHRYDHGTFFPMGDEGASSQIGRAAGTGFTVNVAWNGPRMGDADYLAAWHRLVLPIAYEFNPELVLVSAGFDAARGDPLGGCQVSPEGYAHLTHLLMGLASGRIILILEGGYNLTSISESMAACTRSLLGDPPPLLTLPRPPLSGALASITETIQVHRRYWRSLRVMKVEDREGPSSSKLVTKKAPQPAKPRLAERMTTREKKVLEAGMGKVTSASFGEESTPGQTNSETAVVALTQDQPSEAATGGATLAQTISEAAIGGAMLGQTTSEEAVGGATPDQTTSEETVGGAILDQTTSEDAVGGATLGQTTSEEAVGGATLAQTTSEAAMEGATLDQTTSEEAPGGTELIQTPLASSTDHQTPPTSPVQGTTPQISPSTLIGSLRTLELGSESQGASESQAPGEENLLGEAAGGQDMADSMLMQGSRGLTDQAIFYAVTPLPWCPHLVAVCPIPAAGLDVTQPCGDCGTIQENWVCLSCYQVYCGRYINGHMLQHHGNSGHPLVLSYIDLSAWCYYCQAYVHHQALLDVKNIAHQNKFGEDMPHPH

Histone deacetylase 1 = Histone deacetylase 1 (Homo sapiens, UniProt Q13547); assay: Inhibition of HDAC1 (unknown origin)
HL-60 = assay: Antiproliferative activity against human HL-60 cells assessed as inhibition of cell growth by MTT assay; format: functional, cell-based
[3] = Cytotoxicity against human HuT 102 cells assessed as inhibition of cell growth by MTT assay; format: functional, cell-based
A549 [4] = assay: Antitumor activity against human A549 cells xenografted in mouse assessed as inhibition of tumor growth at 30 mg/kg, ip relative to control; format: functional
Histone deacetylase 3 = Histone deacetylase 3 (Homo sapiens, UniProt O15379); assay: Inhibition of HDAC3 (unknown origin)
MDA-MB-231 [5] = assay: Antitumor activity against human MDA-MB-231 cells xenografted in mouse assessed as reduction on tumor volume at 20 mg/kg, ip relative to control; format: functional; parameters: scale not given: the % may be the effect or the level left
[6] = Cytotoxicity against human MCF-10A cells; format: toxicity, cell-based
[7] = Selectivity index, ratio of IC50 for cytotoxicity against human BEAS-2B cells to IC50 for cytotoxicity against human MDA-MB-231 cells; format: toxicity, cell-based; details: BEAS-2B cells and MDA-MB-231 cells, read-out: Ratio IC50
MCF7 [8] = assay: Cytotoxicity against human MCF7 cells assessed as inhibition of cell growth by MTT assay; format: functional, cell-based
Histone deacetylase 8 = Histone deacetylase 8 (Homo sapiens, UniProt Q9BY41); assay: Inhibition of HDAC8 (unknown origin)
MDA-MB-231 [9] = assay: Potency index, ratio of vorinostat IC50 to test compound IC50 for cytotoxicity against human MDA-MB-231 cells assessed as inhibition of cell growth by MTT assay; format: functional
[10] = Selectivity index, ratio of IC50 for cytotoxicity against human MCF-10A cells to IC50 for cytotoxicity against human A549 cells; format: toxicity, cell-based; details: MCF-10A cells and A549 cells, read-out: Ratio IC50
A549 [11] = assay: Cytotoxicity against human A549 cells assessed as inhibition of cell growth by MTT assay; format: functional, cell-based
[12] = Cytotoxicity against human BEAS-2B cells; format: toxicity, cell-based
[13] = Selectivity index, ratio of IC50 for cytotoxicity against human MCF-10F cells to IC50 for cytotoxicity against human MCF7 cells; format: toxicity, cell-based; details: MCF-10F cells and MCF7 cells, read-out: Ratio IC50
MDA-MB-231 [14] = assay: Cytotoxicity against human MDA-MB-231 cells assessed as inhibition of cell growth by MTT assay; format: functional, cell-based
[15] = Selectivity index, ratio of IC50 for cytotoxicity against human MCF-10A cells to IC50 for cytotoxicity against human MDA-MB-231 cells; format: toxicity, cell-based; details: MCF-10A cells and MDA-MB-231 cells, read-out: Ratio IC50
Histone deacetylase 2 = Histone deacetylase 2 (Homo sapiens, UniProt Q92769); assay: Inhibition of HDAC2 (unknown origin)
A549 [16] = assay: Potency index, ratio of vorinostat IC50 to test compound IC50 for cytotoxicity against human A549 cells assessed as inhibition of cell growth by MTT assay; format: functional
MCF7 [17] = assay: Potency index, ratio of vorinostat IC50 to test compound IC50 for cytotoxicity against human MCF7 cells assessed as inhibition of cell growth by MTT assay; format: functional
[18] = Selectivity index, ratio of IC50 for cytotoxicity against human MCF-10F cells to IC50 for cytotoxicity against human A549 cells; format: toxicity, cell-based; details: MCF-10F cells and A549 cells, read-out: Ratio IC50
[19] = Selectivity index, ratio of IC50 for cytotoxicity against human BEAS-2B cells to IC50 for cytotoxicity against human MCF7 cells; format: toxicity, cell-based; details: BEAS-2B cells and MCF7 cells, read-out: Ratio IC50
[20] = Selectivity index, ratio of IC50 for cytotoxicity against human MCF-10F cells to IC50 for cytotoxicity against human MDA-MB-231 cells; format: toxicity, cell-based; details: MCF-10F cells and MDA-MB-231 cells, read-out: Ratio IC50
[21] = Selectivity index, ratio of IC50 for cytotoxicity against human MCF-10A cells to IC50 for cytotoxicity against human MCF7 cells; format: toxicity, cell-based; details: MCF-10A cells and MCF7 cells, read-out: Ratio IC50
[22] = Cytotoxicity against human MCF-10F cells; format: toxicity, cell-based
[23] = Selectivity index, ratio of IC50 for cytotoxicity against human BEAS-2B cells to IC50 for cytotoxicity against human A549 cells; format: toxicity, cell-based; details: BEAS-2B cells and A549 cells, read-out: Ratio IC50
AGS = assay: Cytotoxicity against human AGS cells assessed as inhibition of cell growth by MTT assay; format: functional, cell-based
K562 [24] = assay: Cytotoxicity against human K562 cells assessed as inhibition of cell growth by MTT assay; format: functional, cell-based
T47D = assay: Cytotoxicity against human T47D cells assessed as inhibition of cell growth by MTT assay; format: functional, cell-based
[25] = molecular target: cGMP-specific 3',5'-cyclic phosphodiesterase (Homo sapiens, UniProt O76074); assay: Inhibition of PDE5 (unknown origin)
SUP-T1 = assay: Cytotoxicity against human SUP-T1 cells assessed as inhibition of cell growth by MTT assay; format: functional, cell-based
HCT-116 = assay: Cytotoxicity against human HCT-116 cells assessed as inhibition of cell growth by MTT assay; format: functional, cell-based
PC-3 [26] = assay: Cytotoxicity against human PC-3 cells assessed as inhibition of cell growth by MTT assay; format: functional, cell-based
LNCaP = assay: Cytotoxicity against human LNCaP cells assessed as inhibition of cell growth by MTT assay; format: functional, cell-based
MOLT-4 [27] = assay: Cytotoxicity against human MOLT-4 cells assessed as inhibition of cell growth by MTT assay; format: functional, cell-based
SW-620 = assay: Cytotoxicity against human SW620 cells assessed as inhibition of cell growth by MTT assay; format: functional, cell-based
Histone deacetylase = assay: Inhibition of HDAC (unknown origin); format: protein assay, Homo sapiens
HT-29 = assay: Cytotoxicity against human HT-29 cells assessed as inhibition of cell growth by MTT assay; format: functional, cell-based
Raji = assay: Cytotoxicity against human Raji cells assessed as inhibition of cell growth by SRB assay; format: functional, cell-based
[28] = Oral bioavailability in BALB/c mouse at 200 mg/kg; format: ADME, organism-based; details: in vivo
MV4-11 = assay: Cytotoxicity against human MV4-11 cells assessed as inhibition of cell growth by SRB assay; format: functional, cell-based
SNU-387 = assay: Cytotoxicity against human SNU-387 cells assessed as inhibition of cell growth by SRB assay; format: functional, cell-based
SK-HEP1 = assay: Cytotoxicity against human SK-HEP1 cells assessed as inhibition of cell growth by SRB assay; format: functional, cell-based
[29] = Toxicity in BALB/c mouse assessed as maximum tolerated dose; details: in vivo
MCF7 [30] = assay: Cytotoxicity against human MCF7 cells assessed as inhibition of cell growth by SRB assay; format: functional, cell-based
SNU-398 = assay: Cytotoxicity against human SNU-398 cells assessed as inhibition of cell growth by SRB assay; format: functional, cell-based
PLC-PRF-5 = assay: Cytotoxicity against human PLC-PRF-5 cells assessed as inhibition of cell growth by SRB assay; format: functional, cell-based
Ramos = assay: Cytotoxicity against human Ramos cells assessed as inhibition of cell growth by SRB assay; format: functional, cell-based
PC-3 [31] = assay: Cytotoxicity against human PC-3 cells assessed as inhibition of cell growth by SRB assay; format: functional, cell-based
HepG2 = assay: Cytotoxicity against human HepG2 cells assessed as inhibition of cell growth by SRB assay; format: functional, cell-based
Huh-7 = assay: Cytotoxicity against human Huh-7 cells assessed as inhibition of cell growth by SRB assay; format: functional, cell-based
SU-DHL-6 = assay: Cytotoxicity against human SU-DHL-6 cells assessed as inhibition of cell growth by SRB assay; format: functional, cell-based
K562 [32] = assay: Cytotoxicity against human K562 cells assessed as inhibition of cell growth by SRB assay; format: functional, cell-based
MOLT-4 [33] = assay: Cytotoxicity against human MOLT-4 cells assessed as inhibition of cell growth by SRB assay; format: functional, cell-based

Histone deacetylase 1, sequence (Q13547 whole entry): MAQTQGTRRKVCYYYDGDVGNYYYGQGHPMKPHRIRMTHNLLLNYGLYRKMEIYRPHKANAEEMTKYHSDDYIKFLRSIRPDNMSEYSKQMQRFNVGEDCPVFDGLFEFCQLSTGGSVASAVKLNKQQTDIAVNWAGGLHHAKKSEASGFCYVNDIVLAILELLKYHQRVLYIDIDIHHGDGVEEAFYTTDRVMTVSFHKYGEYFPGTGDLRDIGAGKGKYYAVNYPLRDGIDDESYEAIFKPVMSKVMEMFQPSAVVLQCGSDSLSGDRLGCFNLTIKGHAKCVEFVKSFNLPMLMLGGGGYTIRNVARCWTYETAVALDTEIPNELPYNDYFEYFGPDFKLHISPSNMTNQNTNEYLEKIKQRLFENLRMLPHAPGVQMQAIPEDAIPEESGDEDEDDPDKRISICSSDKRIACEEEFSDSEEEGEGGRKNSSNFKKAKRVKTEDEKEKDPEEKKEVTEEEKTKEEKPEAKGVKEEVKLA
Histone deacetylase 2, sequence (Q92769 whole entry): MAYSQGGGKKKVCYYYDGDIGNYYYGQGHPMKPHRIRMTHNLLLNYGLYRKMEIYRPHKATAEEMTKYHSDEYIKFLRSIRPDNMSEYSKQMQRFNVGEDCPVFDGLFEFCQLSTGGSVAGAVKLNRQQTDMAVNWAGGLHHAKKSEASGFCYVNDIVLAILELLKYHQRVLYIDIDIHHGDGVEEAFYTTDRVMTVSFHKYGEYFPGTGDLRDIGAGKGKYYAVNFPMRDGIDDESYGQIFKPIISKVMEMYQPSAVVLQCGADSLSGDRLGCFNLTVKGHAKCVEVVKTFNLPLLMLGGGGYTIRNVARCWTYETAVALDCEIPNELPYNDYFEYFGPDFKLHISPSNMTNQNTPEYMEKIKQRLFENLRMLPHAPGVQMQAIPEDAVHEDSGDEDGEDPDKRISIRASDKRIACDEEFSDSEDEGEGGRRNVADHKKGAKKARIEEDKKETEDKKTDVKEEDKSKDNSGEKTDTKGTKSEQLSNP
Histone deacetylase 8, sequence (Q9BY41 whole entry): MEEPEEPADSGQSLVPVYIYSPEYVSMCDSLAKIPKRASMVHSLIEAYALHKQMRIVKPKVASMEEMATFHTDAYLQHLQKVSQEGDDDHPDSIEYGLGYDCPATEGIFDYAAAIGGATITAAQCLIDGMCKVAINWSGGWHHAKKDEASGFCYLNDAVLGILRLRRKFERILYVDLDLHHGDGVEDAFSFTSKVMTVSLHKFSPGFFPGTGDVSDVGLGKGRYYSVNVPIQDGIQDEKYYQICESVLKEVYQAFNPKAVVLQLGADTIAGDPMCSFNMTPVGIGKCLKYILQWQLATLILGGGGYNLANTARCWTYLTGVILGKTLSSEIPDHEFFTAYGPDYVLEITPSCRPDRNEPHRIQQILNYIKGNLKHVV
Histone deacetylase 3, sequence (O15379 whole entry): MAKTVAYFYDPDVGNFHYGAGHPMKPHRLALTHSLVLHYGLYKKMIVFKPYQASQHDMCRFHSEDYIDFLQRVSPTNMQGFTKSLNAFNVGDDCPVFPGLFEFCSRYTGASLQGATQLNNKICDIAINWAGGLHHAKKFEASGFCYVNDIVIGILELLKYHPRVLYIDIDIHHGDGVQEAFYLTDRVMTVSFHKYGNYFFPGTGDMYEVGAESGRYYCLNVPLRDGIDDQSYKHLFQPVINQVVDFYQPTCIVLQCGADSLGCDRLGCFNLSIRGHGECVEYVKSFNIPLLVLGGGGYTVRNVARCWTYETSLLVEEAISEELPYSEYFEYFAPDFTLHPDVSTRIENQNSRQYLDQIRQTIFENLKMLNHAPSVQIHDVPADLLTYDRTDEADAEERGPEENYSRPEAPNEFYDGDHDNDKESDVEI

O=C(CCCCCNC(=O)c1cc(O)c2c(c1)C(=O)c1cccc(O)c1C2=O)NO
IC50 (U-251): 5.5 µM
IC50 [1]: 5.5 µM
IC50 (T98G): 5.5 µM

O=C(/C=C/c1ccc(S(=O)(=O)Nc2cc(F)cc(F)c2)cc1)NO
IC50 [2]: 0.0052 µM
IC50 (Histone deacetylase 1): 0.0052 µM
IC50 (HL-60): 0.77 µM
IC50 [3]: 0.77 µM
inhibition in vivo at 30 mg/kg (A549 [4]): 41.5%
IC50 (Histone deacetylase 3): 0.0052 µM

O=C(CCCCCC(=O)N(Cc1ccc(Br)s1)c1ccc(OCCN2CCOCC2)cc1)NO
Activity (MDA-MB-231 [5]): 93%
IC50 [6]: > 100 µM
IC50 [2]: 0.00114 µM
selectivity ratio [7]: > 16.2
IC50 (MCF7 [8]): 0.62 µM
IC50 (Histone deacetylase 8): 0.00114 µM
Ratio IC50 (MDA-MB-231 [9]): 3.7
selectivity ratio [10]: > 16.2
IC50 (A549 [11]): 0.62 µM
IC50 [12]: > 100 µM
selectivity ratio [13]: > 16.2
IC50 (MDA-MB-231 [14]): 0.62 µM
IC50 (Histone deacetylase 1): 0.00114 µM
selectivity ratio [15]: > 16.2
IC50 (Histone deacetylase 2): 0.00114 µM
Ratio IC50 (A549 [16]): 3.7
Ratio IC50 (MCF7 [17]): 3.7
selectivity ratio [18]: > 16.2
selectivity ratio [19]: > 16.2
selectivity ratio [20]: > 16.2
selectivity ratio [21]: > 16.2
IC50 [22]: > 100 µM
selectivity ratio [23]: > 16.2

O=C(CCCCCN1CCN2[C@H](Cc3c([nH]c4ccccc34)[C@H]2c2ccc(Br)cc2)C1)NO
IC50 (AGS): 1.5 µM
IC50 (K562 [24]): 1.5 µM
IC50 (T47D): 1.5 µM
IC50 [25]: 0.0463 µM
IC50 (SUP-T1): 1.5 µM
IC50 (HCT-116): 1.5 µM
IC50 (PC-3 [26]): 1.5 µM
IC50 (LNCaP): 1.5 µM
IC50 (MOLT-4 [27]): 1.5 µM
IC50 (SW-620): 1.5 µM
IC50 (Histone deacetylase): 0.0145 µM
IC50 (HT-29): 1.5 µM

CC(C)n1cnc2c(-c3cccc(OCCCCC(=O)NO)c3)nc(N3CCOCC3)nc21
IC50 (Raji): 0.16 µM
bioavailability [28]: 62%
IC50 (MV4-11): 0.16 µM
IC50 (SNU-387): 0.16 µM
IC50 (SK-HEP1): 0.16 µM
MTD [29]: 200 mg/kg
IC50 (MCF7 [30]): 0.16 µM
IC50 (SNU-398): 0.16 µM
IC50 (PLC-PRF-5): 0.16 µM
IC50 (Ramos): 0.16 µM
IC50 (PC-3 [31]): 0.16 µM
IC50 (HepG2): 0.16 µM
IC50 (Huh-7): 0.16 µM
IC50 (SU-DHL-6): 0.16 µM
IC50 (Histone deacetylase): 0.035 µM
IC50 (K562 [32]): 0.16 µM
IC50 (MOLT-4 [33]): 0.16 µM
